Literature values as cited in US20030096831A1, “Ocular growth and nicotinic antagonists” (priority 2000, published 2003).
“Also recorded” adds a separate entry of the source.

What was measured:
accommodation = conditions: nicotine intravitreal and subconjunctival; vecuronium bromide applied to corneas; cited from earlier work
[1] = tested on: ocular elongation following spectacle-induced hyperopic defocus; conditions: applied to chick corneas; cited from earlier work
chick eye refraction = conditions: cited from earlier work
[2] = tested on: nicotinic receptors mediating dopamine release from rat synaptosomal preparations; conditions: cited from earlier work
[3] = tested on: nicotinic receptors in preparations of rat thalamus; conditions: cited from earlier work
[4] = tested on: putative α3β4-containing receptor; conditions: cited from earlier work
[5] = target: human muscle nicotinic receptors (Homo sapiens, UniProt P02708+P07510+Q07001); conditions: cited from earlier work
Chain of human muscle nicotinic receptors (P02708 21-457): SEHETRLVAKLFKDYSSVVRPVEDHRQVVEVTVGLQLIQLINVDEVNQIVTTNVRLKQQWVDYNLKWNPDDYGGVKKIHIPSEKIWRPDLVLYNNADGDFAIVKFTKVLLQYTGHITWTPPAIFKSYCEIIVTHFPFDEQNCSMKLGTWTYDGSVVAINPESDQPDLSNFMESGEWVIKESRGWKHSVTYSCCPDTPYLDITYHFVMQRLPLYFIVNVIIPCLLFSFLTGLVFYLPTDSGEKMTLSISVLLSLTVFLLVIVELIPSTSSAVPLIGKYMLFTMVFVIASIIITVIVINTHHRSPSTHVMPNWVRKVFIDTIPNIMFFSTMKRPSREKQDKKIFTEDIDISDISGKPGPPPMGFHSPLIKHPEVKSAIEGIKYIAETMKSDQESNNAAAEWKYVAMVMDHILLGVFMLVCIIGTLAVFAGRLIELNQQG
Chain of human muscle nicotinic receptors (Q07001 22-517): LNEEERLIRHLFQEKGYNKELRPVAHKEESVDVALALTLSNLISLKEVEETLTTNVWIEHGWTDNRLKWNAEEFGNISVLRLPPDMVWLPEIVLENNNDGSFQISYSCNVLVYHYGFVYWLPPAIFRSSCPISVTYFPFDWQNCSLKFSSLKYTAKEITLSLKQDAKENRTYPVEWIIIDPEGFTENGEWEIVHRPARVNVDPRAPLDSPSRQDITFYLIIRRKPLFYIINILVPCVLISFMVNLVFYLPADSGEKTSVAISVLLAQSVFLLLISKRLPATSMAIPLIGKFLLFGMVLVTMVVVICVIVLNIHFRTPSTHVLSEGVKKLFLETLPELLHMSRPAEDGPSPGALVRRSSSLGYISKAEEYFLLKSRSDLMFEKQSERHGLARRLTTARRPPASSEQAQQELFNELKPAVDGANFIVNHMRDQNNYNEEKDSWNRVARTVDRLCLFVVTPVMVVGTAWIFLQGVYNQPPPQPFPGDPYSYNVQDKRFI
Chain of human muscle nicotinic receptors (P11230 24-501 partner): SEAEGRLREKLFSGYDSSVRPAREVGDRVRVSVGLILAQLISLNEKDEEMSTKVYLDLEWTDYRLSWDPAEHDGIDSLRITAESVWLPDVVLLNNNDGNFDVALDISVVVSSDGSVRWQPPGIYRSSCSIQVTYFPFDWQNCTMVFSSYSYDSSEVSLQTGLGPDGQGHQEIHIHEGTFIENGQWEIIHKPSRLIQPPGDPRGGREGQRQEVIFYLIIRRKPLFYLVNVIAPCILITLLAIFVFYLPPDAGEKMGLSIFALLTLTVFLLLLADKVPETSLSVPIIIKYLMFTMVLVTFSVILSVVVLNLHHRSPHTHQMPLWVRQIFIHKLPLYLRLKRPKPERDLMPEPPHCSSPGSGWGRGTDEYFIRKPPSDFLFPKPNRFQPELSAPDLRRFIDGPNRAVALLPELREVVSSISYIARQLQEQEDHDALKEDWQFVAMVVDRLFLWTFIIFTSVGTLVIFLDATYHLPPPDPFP
Chain of human muscle nicotinic receptors (P07510 23-517): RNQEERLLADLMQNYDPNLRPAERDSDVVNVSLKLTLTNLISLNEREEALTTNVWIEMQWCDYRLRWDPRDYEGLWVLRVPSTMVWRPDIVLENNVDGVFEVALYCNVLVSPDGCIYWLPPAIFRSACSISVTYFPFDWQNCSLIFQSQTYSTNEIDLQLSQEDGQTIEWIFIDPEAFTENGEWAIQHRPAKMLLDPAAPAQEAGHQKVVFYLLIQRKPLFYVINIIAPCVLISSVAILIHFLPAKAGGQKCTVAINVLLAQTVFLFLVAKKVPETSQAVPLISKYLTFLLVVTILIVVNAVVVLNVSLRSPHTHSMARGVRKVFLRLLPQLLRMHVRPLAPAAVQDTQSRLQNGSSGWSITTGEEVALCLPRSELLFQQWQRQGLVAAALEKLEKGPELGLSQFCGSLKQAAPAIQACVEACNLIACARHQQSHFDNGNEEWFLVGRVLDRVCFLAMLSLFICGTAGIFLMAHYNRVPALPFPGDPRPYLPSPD

development of myopia = conditions: chick, tree shrew, monkey and human; cited from earlier work

CC(=O)O[C@H]1C[C@@H]2CC[C@@H]3[C@H](CC[C@@]4(C)[C@H]3C[C@H]([N+]3(C)CCCCC3)[C@@H]4OC(C)=O)[C@@]2(C)C[C@@H]1N1CCCCC1 [vecuronium bromide]
effect on accommodation in chicks (accommodation): paralyzed accommodation | ocular elongation following spectacle-induced hyperopic defocus [1]: failed to influence

CN1CCCC1c1cccnc1 (centres unmarked) [nicotine]
effect on accommodation in chicks (accommodation): induce accommodation | myopic refractive shift compared to non-treated eyes (chick eye refraction; daily subconjunctival injections, not seen for subconjunctival saline): 0.75 diopters | myopic shift in refraction compared to contralateral non-injected eyes (chick eye refraction; twice daily intravitreal injections for two weeks, intravitreal saline had the same effect): ~2 diopter

c1cncc(C2CC3CCN2CC3)c1 (racemic) [RJR-2429, (+/−)-2-(-3-pyridinyl)-1-azabicyclo [2.2.2]octane]
action at nicotinic receptors mediating dopamine release [2]: partial agonist | action at nicotinic receptors in preparations of rat thalamus [3]: inhibits | action at putative α3β4-containing receptor [4]: selectively activates | action at human muscle nicotinic receptors [5]: selectively activates

CN1[C@@H]2CC[C@H]1C[C@@H](OC(=O)C(CO)c1ccccc1)C2 (some centres unmarked) [atropine]
effect on accommodation in chicks (accommodation): fails to paralyze accommodation | development of myopia (development of myopia): retards the development of myopia; also recorded: blocks myopia in the chick
